Patent publication US20230157935A1, “GADUSOL-CONTAINING SUNSCREEN FORMULATIONS” (Arcaea, LLC, priority 2021, published 2023)

Experiments:
[1] = system: human skin (subject's back); assay: In vivo SPF determination (FDA 21 CFR 201.327, MEDp/MEDu)
Excerpt: SPF can be measured in vivo according to the methodology set out in FDA 2011 Final Rule issued on Jun. 17, 2011, by the Federal Register. This method is very similar to the ISO 24444:2010 method used to measure SPF in the EU, as well as other countries. In fact, both methods are based on the International Sun Protection Factor (SPF) test method, COLIPA: Bruxelles, Belgium, 2006. The slight differences between the ISO and FDA methods are understood to generate no meaningful difference in the results. […] The main differences between the methods are the following: the calibration times of the UV source (each 12 months for the FDA, each 18 months for the ISO); the reference sunscreen products (P2 for the FDA and P2, P3 or P7 for the ISO); progressions of exposure times used. The disclosures of each of these in vivo SPF testing methods are incorporated herein their entirety by this reference.
The product is then labeled with the appropriate SPF value indicating the amount of sunburn protection provided by the product.
An in vivo SPF determination was conducted according to FDA, 21 CFR Sec. 201.327, subpart (i), SPF Test Procedure, Sunscreen Drug Products for Over-the-Counter Human Use, Final Monograph, Federal Register, Vol. 76, No. 117, Jun. 17, 2011, the disclosure of which is incorporated herein in its entirety by this reference. […]
For a baseline value, a series of 5 UV radiation doses expressed as Joules/square meter, increasing in 25% increments, was administered to two unprotected separate locations on each test subject's back, just below the shoulder blades and above the belt-line, to determine the initial unprotected MED (MEDu).
On Day 2, subjects returned to the testing laboratory within 16 to 24 hours following completion of the MEDu doses for evaluation of their responses, and to determine each subject's unprotected MED (MEDu). A subject's Minimal Erythemal Dose (MED) was the quantity of erythema effective energy, or dose corresponding to the first site that produced the first unambiguous erythema reaction with well-defined borders. […]

[2] = In vitro SPF determination on VitroSkin, absorbance scan 290-400 nm; type: physicochemical
Protocol: SPF can also be evaluated using an in vitro method that utilizes a synthetic/simulated skin as a test substrate. In this regard, VitroSkin® is an advanced testing substrate that effectively mimics the surface properties of human skin. It has been formulated to have topography, pH, critical surface tension, chemical reactivity and ionic strength that is similar to human skin.
SPF was also evaluated using an in vitro method that utilizes a synthetic/simulated skin as a test substrate. In this regard, VitroSkin® is an advanced testing substrate that effectively mimics the surface properties of human skin. It has been formulated to have topography, pH, critical surface tension, chemical reactivity and ionic strength that is similar to human skin. The procedure for in vitro testing was conducted according to a standard protocol. For testing, the test product was applied in a known amount to the substrate at an application density of 2 mg/cm^2. The in vitro SPF scores were determined using a Labsphere UV-1000 Ultraviolet Transmittance Analyzer. Spectral scans of absorbance of the artificial skin treated with a sample sunscreen formulation were performed in the UV region of 290-400 nm. The in vitro SPF was then calculated using the absorbance scan results. At least 5 in vitro SPF values were recorded for each example formulation and the averages calculated for reporting.

Vero E6 fibroblasts = assay: Cellular toxicity compared to oxybenzone; type: cell-based
Excerpt: (§1) The amount of gadusol incorporated to provide the intended in vivo sunscreen SPF boosting activity can be from about 0.25, 0.50, 0.75, 1.0, 1.25, 1.50, 1.75, or 2.0% (w/w) in the sunscreen formulation that includes a physical/inorganic sunscreen active material, where any value can form an upper or lower endpoint, as appropriate. Still further, the amount of gadusol in the sunscreen formulation can be from about 0.25 to 2.0% (w/w), or from about 0.5 to 1.0% (w/w). In these, and possibly other amounts, gadusol suitably can provide a safe and effective sunscreen boosting effect when combined with sunscreen active ingredients. […] To summarize these safety tests, the cellular toxicity of gadusol was compared to that of a common sunscreen ingredient, oxybenzone. Vero E6 fibroblasts were used to evaluate toxicity. […] Toxicity towards E. coli was also not found.

Ames Test = type: cell-based
Comet assay = type: cell-based
Excerpt: as §1

E. coli = assay: Toxicity towards E. coli; type: cell-based
Excerpt: as §1

[3] = Stability of aqueous gadusol under acidic conditions, spectrophotometric at 296 nm; type: physicochemical
Protocol: Yet further, the inventors have determined that the stability of aqueous gadusol can be improved when stored under acidic conditions. For example, 90% gadusol activity can be retained after 90 days at pH 2.5, where the concentration of gadusol is determined spectrophotometrically at 296 nm where it has an extinction coefficient of 21,800 M^−1cm^−1. A standardized concentration curve can be used to determine an amount of gadusol in a volume sampled from a test solution at various time periods. Therefore, storage under acidic conditions may be useful for stabilizing gadusol generally, e.g., prior to introduction into a topical formulation. Combining gadusol with another antioxidant may be useful for extending the shelf life or stability of gadusol in a topical formulation.

[4] = Folin-Ciocalteu antioxidant capacity; conditions: about 0.3 to 10 mg/ml
erythrocytes = assay: Cell-based antioxidant protection in erythrocytes (CAP-e) assay
Protocol: The cell-based antioxidant protection in erythrocytes (CAP-e) assay (Honzel et. al., 2008, and Jensen G S. Cell-based antioxidant protection assay, also disclosed in U.S. Pat. No. 8,465,988, incorporated herein in its entirety by this reference) was used. This testing was selected to measure antioxidant power but, in addition, the method ensures that the antioxidant agent crosses the cell's lipid boundary layer so that only intracytoplasmic activity is measured. […] The tested concentrations for both gadusol and the porphyra-334 ranged from 0.001 to 3.33 mg/mL.

| Compound | in vivo SPF relative to SPF conferred by 10% ZnO alone ([1]; 0.5% gadusol (w/w) in 10% ZnO formulation) | in vivo SPF relative to SPF conferred by 10% ZnO alone ([1]; 0.75% gadusol (w/w) in 10% ZnO formulation) | in vivo SPF relative to SPF conferred by 10% ZnO alone ([1]; 1.0% gadusol (w/w) in 10% ZnO formulation) | in vitro SPF activity of gadusol by itself, formulation matrix (1.1) subtracted ([2]; 0.25-0.5% gadusol, no ZnO) | greater SPF when added to composition containing 10% ZnO ([2]; 0.5% (w/w) gadusol, in vitro) | in vitro absorbance on addition to 10% ZnO sunscreen formulation ([2]; 0.5% gadusol, about 290 to about 325 nm, FIG. 6) | cellular toxicity (Vero E6 fibroblasts) | mutagenicity (Ames Test) | toxicity in the comet assay (Comet assay) | toxicity towards E. coli (E. coli) | gadusol activity retained ([3]; aqueous, after 90 days at pH 2.5) | extinction coefficient ([3]; at 296 nm) | antioxidant power versus mycosporine compound from nori seaweed (porphyra-334) [4] | antioxidant activity (erythrocytes; 0.133 mg/ml) | antioxidant activity versus porphyra-334 (erythrocytes; about 1 mg/ml) | interference with the protective action of gadusol when combined (erythrocytes; gadusol and porphyra-334 combined) |
| --- | --- | --- | --- | --- | --- | --- | --- | --- | --- | --- | --- | --- | --- | --- | --- | --- |
| COC1=C(O)CC(O)(CO)C(O)C1=O (stereo not shown) [gadusol] | about 1.35 times | ~1.51 times | ~2.0 times | 2.5-2.8 SPF units | ~50% | significantly more absorbance | less toxic | not to be mutagenic | nor was it toxic | not found | 90% | 21,800 M^−1cm^−1 | substantially equivalent | Some in vivo antioxidant activity | significantly more active | – |
| COC1=C(NCC(=O)O)C[C@@](O)(CO)CC1=N[C@H](C(=O)O)[C@@H](C)O [porphyra-334, reference compound] | – | – | – | – | – | – | – | – | – | – | – | – | – | – | – | did not interfere |
